{"source": "paper PMC11637483", "about": "“Dissecting caspase-2-mediated cell death: from intrinsic PIDDosome activation to chemical modulation” (Protein & Cell, 2024)", "biological_target": "T1, MBP-CASP2(32–165), human caspase-2 pro-domain (Homo sapiens, UniProt P42575)", "T1 construct": "cDNAs encoding BID and caspase-2 pro-domain (residues 32–165) were constructed into modified pET vectors; made in house; host or cells: E. coli BL21 (DE3)", "T1 sequence (P42575 32-165)": "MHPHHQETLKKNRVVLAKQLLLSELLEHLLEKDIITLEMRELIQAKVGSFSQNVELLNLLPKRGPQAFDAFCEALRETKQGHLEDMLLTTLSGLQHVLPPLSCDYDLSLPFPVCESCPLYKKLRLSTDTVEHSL", "experiment": "MicroScale Thermophoresis binding to MBP-fused caspase-2 pro-domain", "details": "MST, 25°C, PBST buffer; means ± s.d. from two determinations; read-out: KD (binding constant)", "text": "The above results prompted us to reason whether HUHS015-36 could directly target caspase-2 for activation without the requirement of any other mediator. To directly test this hypothesis, we tried to obtain purified caspase-2 protein. The preparation of full-length caspase-2 protein is known to be technically challenging. Meanwhile, the CARD domain of a caspase often plays the role in sensing upstream signals, as exemplified by the CARD of caspase-2 that is recruited by RAIDD through the CARD–CARD interaction for assembling the PIDDosome. […]\nFigure 4. […] (A) The direct binding between HUHS015-36 and MBP-fused human caspase-2 pro-domain was detected by microscale thermophoresis (MST). […] The calculated dissociation constant (KD) is expressed as means ± s.d. from two determinations. […] ATP-based cell viability in panels (C–E) is expressed as mean ± s.d. from three technical replicates. […] TEXT PRINTED IN THE PICTURE: (A) HUHS015-36: MBP-CASP2(32–165) vs. HUHS015-36: KD (μmol/L): 22.05 ± 6.151; MBP vs. HUHS015-36: KD (μmol/L): Not detected\nMicroScale thermophoresis (MST) experiments were carried out at 25°C in the PBST Buffer (PBS with 0.05%, v/v Tween 20) by using a Monolith 2020 (TNG) (MM-208). […] The temperature-induced changes in fluorescence intensity of each sample in the capillary thermophoresis tubes were recorded by the Monolith instrument. […]", "note": "Several values for one entry are separate records, joined by “and”; a condition that tells them apart may be missing. Equal entries are not always repeated.", "data": [{"smiles": "Cc1cccc2nc(-n3nc4c(c3O)CCCC4)[nH]c12", "note": "[HUHS015-36]", "values": [{"measurement": "Kd", "result": "~22 µM and 22.1 µM"}]}]}
